Read-outs that look alike come from different tables or passages of the source.
Legend:
[1] = Solubility studies of benzimidazoles (triclabendazole, oxfendazole, albendazole, ricobendazole) in different organic solvents; assay type: physicochemical
Experimental: As a comparison trials were conducted to determine the solubility of various members of the benzimidazole family in different solvents.
But more importantly it was discovered that triclabendazole is extremely soluble in 2-pyrrolidone and PEG 400 with more than 500 mg of triclabendazole capable of being dissolved in a ml of these solvents. This is particularly advantageous as it allows for formulations of low volume to be formulated for delivery to cattle and other animals.

[2] = Solubility studies of triclabendazole in different alcohols; assay type: physicochemical
[3] = solvents such as benzyl alcohol, propylene glycol, NMP, 2-pyrollidone, PEG, glycerol formal and butyl dioxitol

For CCCSc1ccc2nc(NC(=O)OC)[nH]c2c1 [albendazole], which “Solubility (in words)” value [1, 3] is on record?
The value was “either insoluble or so insignificantly soluble”.

For CCC[S+]([O-])c1ccc2[nH]c(NC(=O)OC)nc2c1 (centres unmarked) [ricobendazole], which “Solubility (in words)” value [1, 3] is on record?
The value was “either insoluble or so insignificantly soluble”.

Which “Solubility (in words)” value [1] does the source give for COC(=O)Nc1nc2ccc([S+]([O-])c3ccccc3)cc2[nH]1 (centres unmarked) [oxfendazole] here?
Its value is “either insoluble or so insignificantly soluble”.

With CSc1nc2cc(Cl)c(Oc3cccc(Cl)c3Cl)cc2[nH]1 [triclabendazole, 5-Chloro-6-(3,3-dichlorophenoxy)-2-methylthio-1H-benzimidazole] as the molecule, how does the “Solubility (in words)” value [1] read?
The value was “more soluble generally”.

And the “Quantity dissolved in 10 ml solvent” value ([1]; in 10 ml 2-pyrrolidone, flowable in nature)?
Its value is 10.0 g (flowable.

What about the “Quantity dissolved in 10 ml solvent” value ([1]; in 10 ml Benzyl Alcohol, max solubility) of the same molecule?
The value was 5.0 g (Max.

And the “Quantity dissolved in 10 ml solvent” value ([1]; in 10 ml DGBE (butyl dioxitol), max solubility)?
Its value is 2.0 g (Max.

And the “Quantity dissolved in 10 ml solvent” value ([1]; in 10 ml Glyceryl Formal, max solubility)?
Its value is 1 g (Max.

What about the “Quantity dissolved in 10 ml solvent” value ([1]; in 10 ml NMP, max solubility) of the same molecule?
Its value is 4.5 g (Max.

What about the “Quantity dissolved in 10 ml solvent” value ([1]; in 10 ml PEG400, flowable in nature) of the same molecule?
The value was 10.0 g (flowable.

And the “Quantity dissolved in 10 ml solvent” value ([1]; in 10 ml Propylene Glycol, max solubility)?
Its value is 1.5 g (Max.

And the “Amount dissolved” value ([1]; solvent Benzyl Alcohol, max solubility)?
The value was 357.14 mg/mL.

And the “Amount dissolved” value ([1]; solvent DGBE (butyl dioxitol), max solubility)?
Its value is 166.66 mg/mL.

What about the “Amount dissolved” value ([1]; solvent Glyceryl Formal, max solubility) of the same molecule?
Its value is 90.91 mg/mL.

And the “Amount dissolved” value ([1]; solvent NMP (N-methyl pyrrolidone), max solubility)?
The value was 321.43 mg/mL.

And the “Amount dissolved” value ([1]; solvent Propylene Glycol, max solubility)?
The value was 136.36 mg/mL.

What about the “Amount dissolved” value ([2]; solvent 1-butanol) of the same molecule?
The value was 117.5 mg/mL.

What about the “Quantity dissolved in solvent” value ([2]; solvent 1-butanol) of the same molecule?
Its value is 2 gm/15 ml.

What about the “Amount dissolved” value ([2]; solvent 1-hexanol) of the same molecule?
Its value is 117.5 mg/mL.

And the “Quantity dissolved in solvent” value ([2]; solvent 1-hexanol)?
The value was 2 gm/15 ml.

And the “Amount dissolved” value ([2]; solvent Ethyl alcohol)?
Its value is 88.88 mg/mL.

What about the “Quantity dissolved in solvent” value ([2]; solvent Ethyl alcohol) of the same molecule?
Its value is 2 gm/20 ml.

And the “Amount dissolved” value ([2]; solvent Isopropyl alcohol)?
The value was 117.5 mg/mL.

And the “Quantity dissolved in solvent” value ([2]; solvent Isopropyl alcohol)?
Its value is 2 gm/15 ml.

And the “Amount dissolved” value ([2]; solvent Methyl alcohol)?
The value was 88.88 mg/mL.

And the “Quantity dissolved in solvent” value ([2]; solvent Methyl alcohol)?
The value was 2 gm/20 ml.

From patent US20080249153A1, “ANTHELMINTIC FORMULATIONS” (priority 2005, published 2008)
